# pIC50: −log10 of the molar value.
# Test system: TNF-α secretion in THP-1 cells
# Experiment: LPS-induced TNF-α secretion assay in THP-1 cells (ELISA)
# Format: cell-based
# Details: Homo sapiens; LPS-induced TNF-α secretion in THP-1 cells, 2 hours pre-incubation, 24 hours LPS
# Description: The compounds of Examples 9, 98 and 105 of the invention were tested in LPS-induced TNF-α secretion assay in THP-1 cells. Human THP-1 cells (purchased from ATCC, Cat. No.: TIB-202) were cultured in RPMI-1640 medium (purchased from Gibco, Cat. No.: 22440) containing 10% fetal bovine serum (purchased from Gibco, Cat. No.: 10099-141) and 0.05 mM of 2-mercaptoethanol (purchased from Gibco, Cat. No.: 21985). The THP-1 cells in logarithmic growth phase were seeded in a 96-well plate at 2×10^5 cells/well/100 μL. The test samples were diluted with RMPI-1640 medium to 4 folds of the final concentration (5-fold dilutions starting from 10 μM, setting 6 drug concentrations, and testing in replicate wells at each concentration). The diluted test samples were added to the test wells seeded with cells at 50 μL/well, and RMPI-1640 medium (50 μL) was separately added to positive control and negative control wells. The 96-well plate was placed in the incubator at 37° C., 5% CO2 and pre-incubated for 2 hours. The 96-well plate was taken out, and 400 ng/mL of LPS (50 μL) (purchased from Sigma, Cat. No.: L6529-1MG) was added to each well of the test wells and the positive control wells, and RMPI-1640 medium (50 μL) was added to the negative control wells. After incubation in the incubator at 37° C., 5% CO2 for 24 hours, the cell culture supernatant was taken and determined for the content of TNF-α in the supernatant using a human TNF-α ELISA kit (purchased from DKW, Cat. No.: 12-1720-096).
row,Structure (SMILES),pIC50
1,Cc1cc(Nc2nc(N[C@H]3CC[C@](C)(O)CC3)c3sccc3n2)sn1 [Compound 9],≥ 6.30
2,"Cc1cc(Nc2nc(N[C@H]3CC[C@H](N4CCCCC4)CC3)c3sccc3n2)sn1 [Compound 98, N^4-(trans-4-(piperidin-1-yl)cyclohexyl)-N^2-(3-methylisothiazol-5-yl)thieno[3,2-d]pyrimidine-2,4-diamine]",≥ 6.30
3,"COCCCn1ccc2nc(Nc3cc(C)ns3)nc(N[C@H]3CC[C@H](N4CCCCC4)CC3)c21 [Compound 105, 5-(3-methoxylpropyl)-N^4-(trans-4-(piperidin-1-yl)cyclohexyl)-N^2-(3-methylisothiazol-5-yl)-5H-pyrrolo[3,2-d]pyrimidine-2,4-diamine]",≥ 6.30

# Biological target: IRAK4 kinase (Homo sapiens (Human), UniProt Q9NWZ3)
# Experiment: IRAK4 kinase activity inhibition assay (ADP-Glo)
# Format: biochemical
# Details: 10 μM ATP, MBP substrate, 60 min at 25° C.
# Description: IRAK4 kinase (purchased from Life Technologies, Cat. No.: PR5612U) was diluted to 2 folds of the final concentration (the final concentration is 0.76 ng/μL) with reaction buffer (40 mM Tris-HCl, pH 7.5; 20 mM MgCl2; 0.1 mg/mL BSA; 1 mM DTT), and added to a 384-well plate at 5 μL/well. The test drugs were 10-fold serial diluted from 10 μM to set six concentration points and added to the test wells of the 384-well plate at 2.5 μL/well. After incubation for 10 min at 25° C., 10 μM of ATP and […] of an enzyme reaction substrate, myelin basic protein MBP (purchased from SignalChem, Cat. No.: M42-51N) were added at 2.5 µL/well, and reacted at 25° C. for 60 minutes. After the reaction was completed, the kinase activity assay was performed using the ADP-Glo™ kinase assay kit (purchased from Promega, Cat. No.: V9102) according to the manufacture's instruction, i.e., 10 μL of ADP-Glo reaction reagent was first added and reacted at 25° C. for 40 minutes, 10 μL of the solution to be tested was taken and mixed with 10 μL of ADP-Glo detection reagent, and reacted at 25° C. for 30 minutes. The kinase activity was then detected, and the IC50 values of the test drugs were calculated.
# IRAK4 kinase, sequence (Q9NWZ3 whole entry): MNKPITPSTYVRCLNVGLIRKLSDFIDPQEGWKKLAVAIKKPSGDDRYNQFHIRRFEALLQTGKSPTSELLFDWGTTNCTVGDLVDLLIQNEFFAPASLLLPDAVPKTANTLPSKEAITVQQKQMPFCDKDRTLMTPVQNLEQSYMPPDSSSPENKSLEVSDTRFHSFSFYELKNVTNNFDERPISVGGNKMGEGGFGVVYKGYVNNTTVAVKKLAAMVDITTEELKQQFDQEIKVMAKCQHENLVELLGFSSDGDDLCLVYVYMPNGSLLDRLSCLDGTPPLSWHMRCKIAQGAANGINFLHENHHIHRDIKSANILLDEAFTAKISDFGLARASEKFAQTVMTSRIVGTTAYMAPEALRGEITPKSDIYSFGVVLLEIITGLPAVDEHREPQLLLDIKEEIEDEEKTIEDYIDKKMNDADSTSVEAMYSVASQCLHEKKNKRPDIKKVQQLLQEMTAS
row,Structure (SMILES),pIC50
1,Cc1cc(Nc2nc(N[C@H]3CC[C@](C)(O)CC3)c3sccc3n2)sn1 [Compound 9],≥ 7.00
2,CN1CCN(c2cccc(Nc3nc(N[C@H]4CC[C@](C)(O)CC4)c4sccc4n3)c2)CC1 [Compound 73],6.00 to 7.00
3,"Cc1cc(Nc2nc(N[C@H]3CC[C@H](N4CCCCC4)CC3)c3sccc3n2)sn1 [Compound 98, N^4-(trans-4-(piperidin-1-yl)cyclohexyl)-N^2-(3-methylisothiazol-5-yl)thieno[3,2-d]pyrimidine-2,4-diamine]",≥ 7.00
4,Cc1cc(Nc2nc(N[C@H]3C[C@@H](N)C3)c3sccc3n2)sn1 [Compound 78],≥ 7.00
5,Cn1cc(Nc2nc(N[C@H]3CC[C@@H](N)CC3)c3sccc3n2)cn1 [Compound 84],6.00 to 7.00
6,C[C@]1(O)CC[C@H](Nc2nc(Nc3cc(C(=O)N[C@@H]4CCCNC4)ns3)nc3ccsc23)CC1 [Compound 56],≥ 7.00
7,"COCCCn1ccc2nc(Nc3cc(C)ns3)nc(N[C@H]3CC[C@H](N4CCCCC4)CC3)c21 [Compound 105, 5-(3-methoxylpropyl)-N^4-(trans-4-(piperidin-1-yl)cyclohexyl)-N^2-(3-methylisothiazol-5-yl)-5H-pyrrolo[3,2-d]pyrimidine-2,4-diamine]",≥ 7.00
8,"Cc1cc(Nc2nc(N[C@H]3CC[C@H](N(C)C)CC3)c3sccc3n2)sn1 [Compound 91, N^4-(trans-4-(dimethylamino)cyclohexyl)-N^2-(3-methylisothiazol-5-yl)thieno[3,2-d]pyrimidine-2,4-diamine]",≥ 7.00
9,Cc1cc(Nc2nc(N[C@H]3CC[C@@H](O)CC3)c3sccc3n2)sn1 [Compound 8],≥ 7.00
10,Cc1cc(Nc2nc(NC3CCC(CO)CC3)c3sccc3n2)sn1 (stereo not drawn) [Compound 10],≥ 7.00
11,Cc1cc(Nc2nc(NC3CCC(C)(O)C3)c3sccc3n2)sn1 (stereo not drawn) [Compound 6],6.00 to 7.00
12,Cc1cc(Nc2nc(O[C@H]3CC[C@H](N4CCOCC4)CC3)c3sccc3n2)sn1 [Compound 103],6.00 to 7.00
13,Cc1cc(Nc2nc(O[C@H]3CC[C@@H](N)CC3)c3sccc3n2)sn1 [Compound 82],6.00 to 7.00
14,Cc1ncccc1-n1cc(Nc2nc(N[C@H]3CC[C@H](O)CC3)c3sccc3n2)cn1 [Compound 41],5.00 to 6.00
15,O[C@H]1CC[C@H](Nc2nc(Nc3cnn(-c4ccc(N5CCOCC5)cc4)c3)nc3ccsc23)CC1 [Compound 35],6.00 to 7.00
16,CN1CCN(Cc2cc(Nc3nc(N[C@H]4CC[C@](C)(O)CC4)c4sccc4n3)sn2)CC1 [Compound 75],5.00 to 6.00
17,Cc1cc(Nc2nc(N[C@H]3CC[C@H](O)C3)c3sccc3n2)sn1 [Compound 5],6.00 to 7.00
18,Cc1cc(Nc2nc(N[C@H]3CC[C@](C)(O)CC3)c3c(ccn3Cc3cccnc3)n2)sn1 [Compound 106],6.00 to 7.00
19,Cc1cc(Nc2nc(NC3CCC(O)C(C)C3)c3sccc3n2)sn1 (stereo not drawn) [Compound 11],6.00 to 7.00
20,O[C@H]1CC[C@H](Nc2nc(Nc3cnn(-c4cccnc4)c3)nc3ccsc23)CC1 [Compound 37],≥ 7.00

row,Structure (SMILES),pIC50
1,O[C@H]1CC[C@H](Nc2nc(Nc3cnn(-c4ccncc4)c3)nc3ccsc23)CC1 [Compound 38],≥ 7.00
2,Cc1cc(Nc2nc(N[C@H]3C[C@@](C)(O)C3)c3sccc3n2)sn1 [Compound 3],≥ 7.00
3,Cc1cc(Nc2nc(N[C@H]3CC[C@H](N4CCCCC4)CC3)c3c(ccn3CCCC#N)n2)sn1 [Compound 107],≥ 7.00
4,C[C@]1(O)CC[C@H](Nc2nc(Nc3cc(C(=O)Nc4ccccc4)ns3)nc3ccsc23)CC1 [Compound 61],5.00 to 6.00
5,"Cc1cc(Nc2nc(N[C@H]3CC[C@H](O)CC3)c3occc3n2)sn1 [Compound 76, trans-4-((2-((3-methylisothiazol-5-yl)amino)furo[3,2-d]pyrimidin-4-yl)amino)cyclohexanol]",6.00 to 7.00
6,O[C@H]1CC[C@H](Nc2nc(Nc3cnoc3)nc3ccsc23)CC1 [Compound 19],6.00 to 7.00
7,"Cc1cc(Nc2nc(N[C@H]3C[C@H](N)C3)c3sccc3n2)sn1 [Compound 77, N^4-(trans-3-aminocyclobutyl)-N^2-(3-methylisothiazol-5-yl)thieno[3,2-d]pyrimidine-2,4-diamine]",≥ 7.00
8,C[C@]1(O)CC[C@H](Nc2nc(Nc3cc(C(=O)Nc4cccnc4)ns3)nc3ccsc23)CC1 [Compound 62],6.00 to 7.00
9,"Cc1cc(Nc2nc(N[C@H]3CC[C@H](O)CC3)c3sccc3n2)sn1 [Compound 1, trans-4-((2-((3-methylisothiazol-5-yl)amino)thieno[3,2-d]pyrimidin-4-yl)amino)cyclohexanol]",≥ 7.00
10,Cc1cc(Nc2nc(O[C@H]3CC[C@H](N4CCCC4)CC3)c3sccc3n2)sn1 [Compound 101],≥ 7.00
11,Cc1cc(Nc2nc(NC3CCC(C(N)=O)CC3)c3sccc3n2)sn1 (stereo not drawn) [Compound 13],6.00 to 7.00
12,Cc1cc(Nc2nc(N[C@H]3CC[C@H](N4CCOCC4)CC3)c3sccc3n2)sn1 [Compound 100],≥ 7.00
13,Cc1cc(Nc2nc(N[C@H]3CC[C@](C)(O)CC3)c3sccc3n2)cc(C)n1 [Compound 22],6.00 to 7.00
14,"Cc1cc(Nc2nc(N[C@H]3CC[C@H](O)CC3)c3c(ccn3C)n2)sn1 [Compound 104, trans-4-((5-methyl-2-((3-methylisothiazol-5-yl)amino)-5H-pyrrolo[3,2-d]pyrimidin-4-yl)amino)cyclohexanol]",≥ 7.00
15,Cn1cc(Nc2nc(N[C@H]3CC[C@H](O)CC3)c3sccc3n2)cn1 [Compound 18],≥ 7.00
16,Cc1cc(Nc2nc(O[C@H]3CC[C@H](N(C)C)CC3)c3sccc3n2)sn1 [Compound 96],≥ 7.00
17,C[C@]1(O)CC[C@H](Nc2nc(Nc3cc(C(=O)NC4CCNCC4)cs3)nc3ccsc23)CC1 [Compound 49],6.00 to 7.00
18,C[C@]1(O)CC[C@H](Nc2nc(Nc3cccc(CC(N)=O)c3)nc3ccsc23)CC1 [Compound 72],5.00 to 6.00
19,CCN(CC)[C@H]1CC[C@H](Nc2nc(Nc3cc(C)ns3)nc3ccsc23)CC1 [Compound 94],≥ 7.00

# Test system: TMD-8 cells
# Experiment: TMD-8 cell growth inhibition assay (CCK-8)
# Format: cell-based
# Details: Homo sapiens, TMD8, 96 hours
# Description: The compounds of Examples 9, 98 and 105 of the invention were tested in TMD-8 cell growth inhibition assay. TMD-8 cells (available from Korea Hanmi Research Center) were cultured in RMPI-1640 medium (purchased from Gibco, Cat. No.: 22440) containing 10% fetal bovine serum (purchased from Gibco, Cat. No.: 10099-141). The TMD-8 cells in logarithmic growth phase were seeded in a 96-well plate at 20,000 cells/well/100 μL, and RMPI-1640 medium (100 μL) was added into blank control wells. The test samples were diluted with RMPI-1640 medium to 2 folds of the final concentration (10-fold dilutions starting from 10 μM, setting 6 drug concentrations, and testing in replicate wells at each concentration). The diluted test samples were added to test wells seeded with cells at 100 μL/well, and RMPI-1640 medium (100 μL) was separately added to the positive control wells and the blank control wells. The 96-well plate was placed in the incubator and reacted at 37° C., 5% CO2 for 96 hours. After the reaction was completed, the 96-well plate was taken from the incubator and to each well was added CCK-8 (100 μL) (purchased from DOJINDO, Cat. No.: CK04-11). Then the 96-well plate was put back to the incubator and incubated for another 2 hours. The light absorbance was measured at 450 nm, and the IC50 values were calculated therefrom.
row,Structure (SMILES),pIC50
1,Cc1cc(Nc2nc(N[C@H]3CC[C@](C)(O)CC3)c3sccc3n2)sn1 [Compound 9],≥ 6.30
2,"Cc1cc(Nc2nc(N[C@H]3CC[C@H](N4CCCCC4)CC3)c3sccc3n2)sn1 [Compound 98, N^4-(trans-4-(piperidin-1-yl)cyclohexyl)-N^2-(3-methylisothiazol-5-yl)thieno[3,2-d]pyrimidine-2,4-diamine]",≥ 6.30
3,"COCCCn1ccc2nc(Nc3cc(C)ns3)nc(N[C@H]3CC[C@H](N4CCCCC4)CC3)c21 [Compound 105, 5-(3-methoxylpropyl)-N^4-(trans-4-(piperidin-1-yl)cyclohexyl)-N^2-(3-methylisothiazol-5-yl)-5H-pyrrolo[3,2-d]pyrimidine-2,4-diamine]",≥ 6.30
